Results taken from paper PMC10899790, “A bromodomain-independent mechanism of gene regulation by the BET inhibitor JQ1: direct activation of nuclear receptor PXR” (Nucleic Acids Research, 2023).

Legend:
[1] = LC–MS/MS test of JQ1 stability in crystallization solution; type: physicochemical; conditions: 1 μM JQ1, crystallization solution pH 7.4, 20°C
Experimental: An Echo 650 Acoustic Liquid Handler was used to dispense 50 nl/well of 1 mM JQ1 into 96-well assay plates (Corning Inc., one plate per time point, six replicate wells per time point). Crystallization solution (50 μl) was added to each well to yield final concentrations of 1 μM JQ1 and 0.1% DMSO. […] This composition matched the final composition of a crystallization drop containing a 1:1 ratio of protein to reservoir solution. To the 0-day plate, 100 μl cold acetonitrile (ACN) containing 400 ng/ml warfarin (Fluka Chemical Corporation) as the internal standard was immediately added to each well. The remaining plates were incubated at 20°C for 1–8 days followed by quenching with 100 μl cold ACN containing 400 ng/ml warfarin. Quenched samples were sealed and stored at -20°C until analysis. On the day of analysis, plates were thawed, shaken at 600 rpm for 10 min, and centrifuged at 2000 × g for 10 min. The supernatants (20 μl) were transferred to a new analytical 96-well plate (Corning Inc.) and diluted with 180 μl 50% ACN in Milli-Q water. Chromatographic separation was performed on an ACQUITY UPLC BEH C18 column (1.7 μm, 2.1 mm × 50 mm) (Waters Corporation) using the Triple Quad 6500 System (AB Sciex). The injection volume was 7 μl. […] Data were acquired using Analyst Software (AB Sciex, version 1.6.3) and analyzed using MultiQuant Software (AB Sciex, version 3.0.3).

[2] = system: PGK promoter; assay: PGK promoter firefly luciferase reporter; type: cell-based, human; conditions: HepG2, 24 h
Experimental: (§1) HepG2 cells (7.5 × 10^5/well) were plated in six-well tissue culture-treated plates. The following day, cells were co-transfected with pGL3-CYP3A4-luc (2 μg/well), pRL-CMV (200 ng/well) and 100 ng/well of either empty vector (pcDNA3), pcDNA3-FLAG-PXR, pCMV6-mPXR or pGL4.53-PGK-PXR using Lipofectamine 3000 (Thermo Fisher Scientific). Twenty-four hours after transfection, cells were trypsinized and suspended in phenol red-free DMEM (Thermo Fisher Scientific) supplemented with 5% charcoal/dextran-treated FBS (HyClone), and 1 × 10^4 cells/well in 25 μl media were added to white 384-well plates. […] After 24 h, the Dual-Glo Luciferase Assay System (Promega) and EnVision microplate reader (PerkinElmer) were used to measure firefly and Renilla luciferase activities. CMV-driven Renilla luciferase was used as an indicator of general transcriptional modulation by the test compounds and is plotted as fold change (FC) relative to DMSO controls. Assays utilizing pGL4.54[luc2/TK], pGL4.53[luc2/PGK], or pGL4.13[luc2/SV40] were similarly performed and normalized.

[3] = biological target: T1, PXR LBD (Homo sapiens, UniProt O75469); assay: Cellular PXR LBD SRC-1 recruitment assay (NanoBiT); type: cell-based; conditions: HepG2, NanoBiT, 30 min; 100 nM T0901317 or 5 μM other compound
T1 construct: pcDNA3-SmBiT-PXR LBD (residues 139–434); expressed in transfected cells; host or cells: HepG2
T1 sequence (O75469 139-434): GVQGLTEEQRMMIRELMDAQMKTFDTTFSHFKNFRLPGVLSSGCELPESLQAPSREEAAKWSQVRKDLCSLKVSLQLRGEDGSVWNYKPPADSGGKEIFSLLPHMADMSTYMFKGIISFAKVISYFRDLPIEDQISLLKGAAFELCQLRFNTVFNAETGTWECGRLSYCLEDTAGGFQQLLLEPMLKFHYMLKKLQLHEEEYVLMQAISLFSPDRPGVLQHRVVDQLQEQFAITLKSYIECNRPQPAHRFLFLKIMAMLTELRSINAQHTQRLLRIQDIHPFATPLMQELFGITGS
T1 sequence (Q15788 621-765 partner limits assumed): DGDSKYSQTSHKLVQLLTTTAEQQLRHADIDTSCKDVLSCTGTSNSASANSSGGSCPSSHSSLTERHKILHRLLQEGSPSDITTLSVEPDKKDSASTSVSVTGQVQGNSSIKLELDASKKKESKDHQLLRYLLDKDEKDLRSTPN
Experimental: Nano Luciferase Binary Technology (NanoBiT) ([33]) was used to assess the interaction of SRC-1 with PXR LBD in HepG2 cells (Supplementary Figure S4). […] The following day, cells were co-transfected with pcDNA3-SmBiT-PXR LBD (100 ng/well) and pcDNA3-LgBiT-SRC-1 (100 ng/well) using Lipofectamine 3000. Empty vector (pcDNA3, 800 ng/well) was used as carrier DNA due to the low amounts of expression plasmids used. […] After 24 h, 5 μl media containing 2.5% DMSO, 5X Nano-Glo Live Cell Substrate from the Nano-Glo Live Cell Assay System (Promega), and 5× concentration of compound was added, resulting in 0.5% DMSO and either 100 nM T0901317 or 5 μM other compound. The plates were incubated for 30 min at RT, and Nano Luciferase activity was then measured with an EnVision microplate reader.

[4] = system: CMV promoter; assay: CMV-Renilla luciferase reporter; type: cell-based, human; conditions: HepG2, 24 h; fold change relative to DMSO
Experimental: as §1

Cc1sc2c(c1C)C(c1ccc(Cl)cc1)=N[C@@H](CC(=O)OC(C)(C)C)c1nnc(C)n1-2 [JQ1, (+)-JQ1]
stability in the crystal growth condition [1]: does not degrade over a period of eight days
PGK promoter-driven luciferase expression [2]: not positively modulated
SRC-1 recruitment to PXR LBD in cells [3]: JQ1 > birabresib > CPI-203
CMV-Renilla luciferase reporter expression [4]: robustly activated Renilla luciferase expression from a CMV promoter
